Experimental data taken from US9326986B2, “Quinazolinone, quinolone and related analogs as sirtuin modulators” (GLAXOSMITHKLINE LLC, priority 2008, dated 2016).

Molecular target: T1, SIRT1 (Homo sapiens, UniProt Q96EB6)
T1 sequence (Q96EB6 1-747): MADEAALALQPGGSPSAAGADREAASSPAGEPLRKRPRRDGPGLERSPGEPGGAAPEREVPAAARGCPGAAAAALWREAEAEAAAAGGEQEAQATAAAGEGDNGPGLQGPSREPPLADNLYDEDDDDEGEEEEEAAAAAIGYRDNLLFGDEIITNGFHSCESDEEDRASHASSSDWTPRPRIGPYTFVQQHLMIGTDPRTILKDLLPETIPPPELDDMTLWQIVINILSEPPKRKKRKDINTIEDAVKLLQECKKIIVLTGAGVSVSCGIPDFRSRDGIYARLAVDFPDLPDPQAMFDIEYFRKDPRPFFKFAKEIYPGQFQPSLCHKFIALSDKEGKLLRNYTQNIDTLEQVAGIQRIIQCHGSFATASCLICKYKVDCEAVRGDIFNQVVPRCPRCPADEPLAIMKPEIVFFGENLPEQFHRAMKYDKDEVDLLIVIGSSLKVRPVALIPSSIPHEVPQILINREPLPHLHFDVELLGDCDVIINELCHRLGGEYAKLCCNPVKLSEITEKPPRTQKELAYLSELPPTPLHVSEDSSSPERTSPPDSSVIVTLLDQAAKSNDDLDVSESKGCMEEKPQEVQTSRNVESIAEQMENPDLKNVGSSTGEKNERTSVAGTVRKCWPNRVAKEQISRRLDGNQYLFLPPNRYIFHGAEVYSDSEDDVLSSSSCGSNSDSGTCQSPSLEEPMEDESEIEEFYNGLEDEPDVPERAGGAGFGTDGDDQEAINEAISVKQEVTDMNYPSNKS
Test: Mass spectrometry based assay to identify modulators of SIRT1 activity (deacetylation of p53-based acetylated peptide)
Assay type: biochemical
Details: 10 nM SIRT1, 0.5 μM peptide substrate, 120 μM βNAD+, 25 minutes at 25° C.; for EC1.5 μM: SIRT1 activation

Structure (SMILES)	% Fold Act. (percent maximum fold activation)	EC1.5 μM
Cn1c(C2CCCC2)nc2c(C(=O)Nc3ccccn3)cccc2c1=O [Compound 214]	B (Fold Activation<200%)	C (EC1.5>25 μM)
Cc1cc(NC(=O)c2cccc3c(=O)n(C)c(-c4cccc(C(F)(F)F)c4)nc23)sn1 [Compound 296]	B (Fold Activation<200%)	B (EC1.5 1-25 μM)
Cn1c(-c2cccc(C(F)(F)F)c2)nc2c(C(=O)Nc3cccc(CN4CC[C@H](F)C4)n3)cccc2c1=O [Compound 352]	A (Fold activation>200%)	A (EC1.5<1.0 μM)
O=C(NC1CN2CCC1CC2)c1cccc2c(=O)cc(-c3cccc(C(F)(F)F)c3)[nH]c12 (stereo not drawn) [Compound 414]	A (Fold activation>200%)	B (EC1.5 1-25 μM)
Cn1c(-c2cccnc2)nc2c(C(=O)Nc3ccccn3)cccc2c1=O [Compound 256]	B (Fold Activation<200%)	C (EC1.5>25 μM)
Cc1cc(C(=O)Nc2cccc3c(=O)cc(-c4cccc(C(F)(F)F)c4)[nH]c23)n(C)n1 [Compound 410]	A (Fold activation>200%)	A (EC1.5<1.0 μM)
Cn1c(-c2cnccn2)nc2c(C(=O)Nc3ccccn3)cccc2c1=O [Compound 258]	B (Fold Activation<200%)	C (EC1.5>25 μM)
Cn1c(-c2cccc(C(F)(F)F)c2)nc2c(C(=O)Nc3cccc(OC[C@H](O)CO)c3)cccc2c1=O [Compound 363]	A (Fold activation>200%)	A (EC1.5<1.0 μM)
Cn1c(-c2ccncn2)nc2c(NC(=O)c3cnccn3)cccc2c1=O [Compound 280]	B (Fold Activation<200%)	C (EC1.5>25 μM)
Cn1c(-c2cccc(C(F)(F)F)c2)nc2c(NC(=O)c3cccc(N4CCCC4)c3)cccc2c1=O [Compound 337]	B (Fold Activation<200%)	C (EC1.5>25 μM)
Cn1c(-c2ccccc2N2CCOCC2)nc2c(C(=O)Nc3ccccn3)cccc2c1=O [Compound 216]	B (Fold Activation<200%)	C (EC1.5>25 μM)
O=C(Nc1cccc2c(=O)cc(-c3cccc(C(F)(F)F)c3)[nH]c12)c1ncccn1 [Compound 417]	A (Fold activation>200%)	A (EC1.5<1.0 μM)
Cn1c(-c2cccc(C(F)F)c2)nc2c(NC(=O)c3cnccn3)cccc2c1=O [Compound 310]	A (Fold activation>200%)	A (EC1.5<1.0 μM)
Cn1c(-c2cccc(C(F)(F)F)c2)nc2c(NC(=O)c3cccc(CN4CCCC4)c3)cccc2c1=O [Compound 364]	A (Fold activation>200%)	B (EC1.5 1-25 μM)
Cn1c(-c2cccc(C(F)(F)F)c2)nc2c(NS(=O)(=O)c3ccccn3)cccc2c1=O [Compound 362]	B (Fold Activation<200%)	C (EC1.5>25 μM)
Cn1c(-c2ncccn2)nc2c(C(=O)Nc3ccccn3)cccc2c1=O [Compound 259]	B (Fold Activation<200%)	C (EC1.5>25 μM)
Cc1ncsc1-c1nc2c(NC(=O)c3cnccn3)cccc2c(=O)n1C [Compound 284]	A (Fold activation>200%)	B (EC1.5 1-25 μM)
O=C(Nc1cccc2c(=O)cc(-c3cccc(C(F)(F)F)c3)[nH]c12)c1ccccn1 [Compound 408]	A (Fold activation>200%)	A (EC1.5<1.0 μM)
Cn1c(-c2cccc(C(F)(F)F)c2)nc2c(NC(=O)c3cncc(N4CCOCC4)n3)cccc2c1=O [Compound 336]	A (Fold activation>200%)	A (EC1.5<1.0 μM)
Cn1cnc(NC(=O)c2cccc3c(=O)n(C)c(-c4cccc(C(F)(F)F)c4)nc23)n1 [Compound 305]	A (Fold activation>200%)	B (EC1.5 1-25 μM)
Cn1c(-c2cccc(C(F)(F)F)c2)nc2c(C(=O)Nc3ccnc(N4CCOCC4)c3)cccc2c1=O [Compound 304]	A (Fold activation>200%)	A (EC1.5<1.0 μM)

Structure (SMILES)	% Fold Act. (percent maximum fold activation)	EC1.5 μM
O=C(Nc1cccnc1)c1cccc2c(=O)cc(-c3ccccc3Cl)[nH]c12 [Compound 441]	A (Fold activation>200%)	B (EC1.5 1-25 μM)
Cn1c(-c2ccc(C(F)(F)F)cc2)nc2c(C(=O)Nc3ccccn3)cccc2c1=O [Compound 208]	B (Fold Activation<200%)	C (EC1.5>25 μM)
O=C(Nc1nccs1)c1cccc2c(=O)cc(-c3ccccc3C(F)F)[nH]c12 [Compound 435]	A (Fold activation>200%)	B (EC1.5 1-25 μM)
Cn1c(-c2cccc(C(F)(F)F)c2)nc2c(C(=O)Nc3cccc(OC[C@H](O)CO)n3)cccc2c1=O [Compound 353]	A (Fold activation>200%)	A (EC1.5<1.0 μM)
Cn1c(-c2ccc(N3CCOCC3)cc2)nc2c(C(=O)Nc3ccccn3)cccc2c1=O [Compound 217]	A (Fold activation>200%)	B (EC1.5 1-25 μM)
O=C(Nc1cccc2c(=O)[nH]c(-c3ccccc3OC(F)F)nc12)c1cnccn1 [Compound 313]	A (Fold activation>200%)	A (EC1.5<1.0 μM)
O=C(Nc1cnccn1)c1cccc2c(=O)cc(-c3cccc(C(F)(F)F)c3)[nH]c12 [Compound 403]	A (Fold activation>200%)	A (EC1.5<1.0 μM)
O=C(Nc1cccnc1)c1cccc2c(=O)cc(-c3ccccc3OC(F)(F)F)[nH]c12 [Compound 439]	A (Fold activation>200%)	A (EC1.5<1.0 μM)
O=C(Nc1nccs1)c1cccc2c(=O)cc(-c3ccccc3OC(F)(F)F)[nH]c12 [Compound 430]	A (Fold activation>200%)	A (EC1.5<1.0 μM)
Cn1c(-c2ccccn2)nc2c(C(=O)Nc3ccccn3)cccc2c1=O [Compound 255]	B (Fold Activation<200%)	C (EC1.5>25 μM)
Cn1c(-c2cccc(C(F)F)c2)nc2c(C(=O)Nc3ccccn3)cccc2c1=O [Compound 323]	B (Fold Activation<200%)	C (EC1.5>25 μM)
Cn1cc(C(=O)Nc2cccc3c(=O)n(C)c(-c4cccc(C(F)(F)F)c4)nc23)cn1 [Compound 268]	B (Fold Activation<200%)	C (EC1.5>25 μM)
O=C(Nc1cccc2c(=O)cc(-c3cccc(C(F)(F)F)c3)[nH]c12)c1ccncn1 [Compound 418]	A (Fold activation>200%)	A (EC1.5<1.0 μM)
O=C(Nc1cccc2c(=O)cc(-c3cccc(C(F)(F)F)c3)[nH]c12)c1cncnc1 [Compound 421]	A (Fold activation>200%)	B (EC1.5 1-25 μM)
Cn1c(-c2ccc(OC(F)(F)F)cc2)nc2c(C(=O)Nc3ccccn3)cccc2c1=O [Compound 211]	B (Fold Activation<200%)	C (EC1.5>25 μM)
Cn1nccc1-c1nc2c(C(=O)Nc3ccccn3)cccc2c(=O)n1C [Compound 264]	B (Fold Activation<200%)	C (EC1.5>25 μM)
Cn1c(-c2cccc(C(F)(F)F)c2)nc2c(C(=O)Nc3cccc(CN4CC[C@@H](F)C4)n3)cccc2c1=O [Compound 345]	A (Fold activation>200%)	A (EC1.5<1.0 μM)
Cn1c(-c2ccncn2)nc2c(C(=O)Nc3ccccn3)cccc2c1=O [Compound 257]	B (Fold Activation<200%)	C (EC1.5>25 μM)
COc1cc(OC)nc(C(=O)Nc2cccc3c(=O)cc(-c4cccc(C(F)(F)F)c4)[nH]c23)n1 [Compound 423]	A (Fold activation>200%)	A (EC1.5<1.0 μM)
Cn1c(-c2cccc(C(F)(F)F)c2)nc2c(NC(=O)c3ccccn3)cccc2c1=O [Compound 239, N-(3-methyl-4-oxo-2-(3-(trifluoromethyl)phenyl)-3,4-dihydroquinazolin-8-yl)picolinamide]	A (Fold activation>200%)	A (EC1.5<1.0 μM)
Cn1c(-c2cccc(C(F)(F)F)c2)nc2c(C(=O)Nc3cccc(CN4CCCC4)n3)cccc2c1=O [Compound 351]	A (Fold activation>200%)	A (EC1.5<1.0 μM)
